One assay deals with T1, Sortase A (Staphylococcus aureus, UniProt Q9S446).
T1 sequence (Q9S446 whole entry): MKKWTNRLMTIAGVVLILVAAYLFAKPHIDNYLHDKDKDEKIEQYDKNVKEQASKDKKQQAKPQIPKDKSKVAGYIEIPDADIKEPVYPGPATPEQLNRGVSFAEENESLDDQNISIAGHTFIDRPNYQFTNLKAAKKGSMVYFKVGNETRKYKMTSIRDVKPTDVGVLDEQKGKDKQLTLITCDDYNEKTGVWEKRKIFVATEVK
The experiment in a line: Inhibition of SrtA.

The subject of assay [1] is Staphylococcus aureus. Briefly: Antimicrobial activity against Staphylococcus aureus Newman. The class given is functional.
Assay [2] deals with Staphylococcus aureus. The experiment in a line: Inhibition of Staphylococcus aureus SKM12 adhesion to fibronectin in relative to wild type. The format is functional. Also noted: scale not given: the % may be the effect or the level left.
Assay [3] relates to Staphylococcus aureus. The experiment in a line: Inhibition of Staphylococcus aureus Newman adhesion to fibronectin. The format is functional, organism-based.

Converted amounts (≈) assume the structure as drawn.

The term IC50 denotes the concentration at which inhibition is half-maximal. The term MIC denotes the lowest concentration found to suppress growth. At Sortase A, `Oc1cc2ccnc3c2c(c1O)NC=C3` [DEMETHYLAAPTAMINE] had an IC50 of 85.9 µM. The compound further had an MIC against Staphylococcus aureus [1] of 25 µg/mL (≈ 125 µM).
The like results for `COc1ccc2cc3[n+](cc2c1OC)CCc1cc2c(cc1-3)OCO2.[Cl-]` [BERBERINE CHLORIDE] were, in that order, 23.4 µM and 100 µg/mL.
Turning to `COc1cc2ccnc3c2c(c1O)N(C)C=C3` [ISOAAPTAMINE], on Sortase A, the concentration for half-maximal inhibition (IC50) was 16.2 µM. In addition, the lowest concentration to inhibit growth in the assay on Staphylococcus aureus [1] (MIC) was 50 µg/mL (≈ 219 µM). Further, the Activity with Staphylococcus aureus [2] is 99%; in the assay on Staphylococcus aureus [3] it was “Dose-dependent effect”.
`COC1=Cc2ccnc3ccnc(c23)C1=O` [DEMETHYLOXY-AAPTAMINE]: inhibition against Sortase A was half-maximal at 94.7 µM (IC50). In the assay with Staphylococcus aureus [1], 25 µg/mL (≈ 118 µM) was the least that counted as inhibitory (MIC).
For `COc1cc2ccnc3c2c(c1OC)NC=C3` [AAPTAMINE], in that order: 103 µM and above 200 µg/mL.

The record behind these values is ChEMBL document CHEMBL1149701, “Aaptamines as sortase A inhibitors from the tropical sponge Aaptos aaptos” (Bioorg Med Chem Lett, 2007).
